Experimental data published in ChEMBL document CHEMBL1128806, “Phosphodiesterase type IV (PDE IV) inhibition. Synthesis and evaluation of a series of 1,3,4-trisubstituted pyrrolidines” (Bioorg Med Chem Lett, 1995).

test system: not listed separately; experiment: Inhibition of TNF-alpha secretion from LPS-stimulated human monocytes; assay type: functional

**Q.** With COC(=O)N1C[C@@H](C(C)=O)[C@H](c2ccc(OC)c(OC3CCCC3)c2)C1 as the compound, how does the IC50 read?
**A.** The IC50 was 457 nM.

**Q.** For COc1ccc(C2CNC(=O)C2)cc1OC1CCCC1 (configuration not stated) [ROLIPRAM], which IC50 is on record?
**A.** The IC50 was 320 nM.

molecular target: T1, 3',5'-cyclic-AMP phosphodiesterase 4B (Homo sapiens, UniProt Q07343); experiment: Inhibition of rolipram binding to Phosphodiesterase 4B
T1 sequence (Q07343 whole entry): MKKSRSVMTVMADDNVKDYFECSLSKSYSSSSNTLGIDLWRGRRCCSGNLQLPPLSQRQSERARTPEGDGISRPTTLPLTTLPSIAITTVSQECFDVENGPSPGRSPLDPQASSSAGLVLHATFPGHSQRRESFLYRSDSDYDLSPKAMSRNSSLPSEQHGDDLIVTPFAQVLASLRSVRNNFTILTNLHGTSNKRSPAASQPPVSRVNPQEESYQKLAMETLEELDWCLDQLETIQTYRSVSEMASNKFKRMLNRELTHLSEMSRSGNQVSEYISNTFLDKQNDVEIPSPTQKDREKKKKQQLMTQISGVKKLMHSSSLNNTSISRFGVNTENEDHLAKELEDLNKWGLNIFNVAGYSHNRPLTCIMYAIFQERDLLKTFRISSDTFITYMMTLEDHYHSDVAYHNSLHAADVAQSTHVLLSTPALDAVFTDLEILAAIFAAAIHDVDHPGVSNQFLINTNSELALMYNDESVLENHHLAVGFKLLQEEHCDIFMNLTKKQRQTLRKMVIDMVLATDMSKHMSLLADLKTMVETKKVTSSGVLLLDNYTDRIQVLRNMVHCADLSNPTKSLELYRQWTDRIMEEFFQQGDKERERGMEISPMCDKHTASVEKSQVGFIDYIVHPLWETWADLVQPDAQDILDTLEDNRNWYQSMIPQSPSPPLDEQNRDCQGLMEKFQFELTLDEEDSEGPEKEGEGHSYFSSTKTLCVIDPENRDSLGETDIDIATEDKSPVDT

**Q.** With COC(=O)N1C[C@@H](C(C)=O)[C@H](c2ccc(OC)c(OC3CCCC3)c2)C1 as the compound, how does the IC50 read?
**A.** The IC50 was 320 nM.

molecular target: T1, 3',5'-cyclic-AMP phosphodiesterase 4B; experiment: Ability to inhibit the catalytic activity of human Phosphodiesterase 4B (PDE IVB)

**Q.** With COc1ccc([C@@H]2CN(C(=O)OCc3ccccc3)C[C@H]2NS(=O)(=O)c2ccccc2)cc1OC1CCCC1 as the compound, how does the Ki read?
**A.** Its Ki is 4420 nM.

**Q.** With COC(=O)[C@@H]1CN(C(=O)OC(C)(C)C)C[C@H]1c1ccc(OC)c(OCCCOc2ccccc2)c1 as the compound, how does the Ki read?
**A.** The Ki was 240 nM.

**Q.** For COC(=O)[C@@H]1CN(C(=O)OC(C)(C)C)C[C@H]1c1ccc(OC)c(OC2CCCC2)c1, which Ki is on record?
**A.** The Ki was 30 nM.

**Q.** With CCC(=O)N1C[C@@H](C(=O)OC)[C@H](c2ccc(OC)c(OC3CCCC3)c2)C1 as the compound, how does the Ki read?
**A.** The Ki was 1130 nM.

**Q.** Which Ki does the source give for COC(=O)N1C[C@@H](NC(=O)OC(C)(C)C)[C@H](c2ccc(OC)c(OC3CCCC3)c2)C1 here?
**A.** The Ki was 14400 nM.

**Q.** Which Ki does the source give for COC(=O)N1C[C@@H](C(=O)OC(C)C)[C@H](c2ccc(OC)c(OC3CCCC3)c2)C1 here?
**A.** Its Ki is 2290 nM.

**Q.** For COC(=O)N1C[C@@H](C#N)[C@H](c2ccc(OC)c(OC3CCCC3)c2)C1, which Ki is on record?
**A.** The Ki was 80 nM.

**Q.** For COC(=O)N1C[C@@H](C(=O)c2ccccc2)[C@H](c2ccc(OC)c(OC3CCCC3)c2)C1, which Ki is on record?
**A.** The Ki was 6030 nM.

**Q.** With COc1ccc([C@@H]2CN(C(=O)OC(C)(C)C)C[C@H]2CO)cc1OC1CCCC1 as the compound, how does the Ki read?
**A.** Its Ki is 50 nM.

**Q.** Which Ki does the source give for COc1ccc([C@@H]2CN(C(=O)OCc3ccccc3)C[C@H]2NS(C)(=O)=O)cc1OC1CCCC1 here?
**A.** Its Ki is 1470 nM.

**Q.** For COc1ccc([C@@H]2CN(C(=O)OCc3ccccc3)C[C@H]2NC(=O)OC(C)(C)C)cc1OC1CCCC1, which Ki is on record?
**A.** The Ki was 290 nM.

**Q.** With COC(=O)N1C[C@@H](C(=O)O)[C@H](c2ccc(OC)c(OC3CCCC3)c2)C1 as the compound, how does the Ki read?
**A.** Its Ki is 1880 nM.

**Q.** For COC(=O)[C@@H]1CN(C(=O)OC)C[C@H]1c1ccc(OC)c(OC2CCCC2)c1, which Ki is on record?
**A.** Its Ki is 160 nM.

**Q.** Which Ki does the source give for COC(=O)[C@@H]1CN(C(=O)OC(C)C)C[C@H]1c1ccc(OC)c(OC2CCCC2)c1 here?
**A.** Its Ki is 40 nM.

**Q.** With COC(=O)N1C[C@@H](C(C)=O)[C@H](c2ccc(OC)c(OC3CCCC3)c2)C1 as the compound, how does the Ki read?
**A.** The Ki was 30 nM.

**Q.** For COC(=O)N1C[C@@H]([N+](=O)[O-])[C@H](c2ccc(OC)c(OC3CCCC3)c2)C1, which Ki is on record?
**A.** Its Ki is 60 nM.

**Q.** With CCC(=O)[C@@H]1CN(C(=O)OC)C[C@H]1c1ccc(OC)c(OC2CCCC2)c1 as the compound, how does the Ki read?
**A.** The Ki was 350 nM.

**Q.** Which Ki does the source give for COC(=O)[C@@H]1CN(C(=O)OCc2ccccc2)C[C@H]1c1ccc(OC)c(OC2CCCC2)c1 here?
**A.** Its Ki is 50 nM.

**Q.** With COC(=O)N1C[C@@H](C(N)=O)[C@H](c2ccc(OC)c(OC3CCCC3)c2)C1 as the compound, how does the Ki read?
**A.** Its Ki is 1570 nM.

**Q.** Which Ki does the source give for COC(=O)[C@@H]1CN(C(=O)OC(C)(C)C)C[C@H]1c1ccc(OC)c(OC)c1 here?
**A.** The Ki was 1200 nM.

**Q.** With CCOC(=O)[C@@H]1CN(C(=O)OC)C[C@H]1c1ccc(OC)c(OC2CCCC2)c1 as the compound, how does the Ki read?
**A.** The Ki was 550 nM.

**Q.** Which Ki does the source give for COC(=O)[C@@H]1CN(C(N)=O)C[C@H]1c1ccc(OC)c(OC2CCCC2)c1 here?
**A.** Its Ki is 1480 nM.

**Q.** With COc1ccc([C@@H]2CN(C(=O)OC(C)(C)C)C[C@H]2C(=O)O)cc1OC1CCCC1 as the compound, how does the Ki read?
**A.** Its Ki is 150 nM.

**Q.** With COC(=O)[C@@H]1CN(C(N)=S)C[C@H]1c1ccc(OC)c(OC2CCCC2)c1 as the compound, how does the Ki read?
**A.** Its Ki is 380 nM.

**Q.** For COc1ccc([C@@H]2CN(C(=O)OC(C)(C)C)C[C@H]2NC(=O)OC(C)(C)C)cc1OC1CCCC1, which Ki is on record?
**A.** The Ki was 1570 nM.

**Q.** For COC(=O)[C@@H]1CN(C=O)C[C@H]1c1ccc(OC)c(OC2CCCC2)c1, which Ki is on record?
**A.** Its Ki is 810 nM.

**Q.** With COc1ccc([C@@H]2CN(C(=O)OC(C)(C)C)C[C@H]2C(N)=O)cc1OC1CCCC1 as the compound, how does the Ki read?
**A.** The Ki was 190 nM.

**Q.** Which Ki does the source give for COC[C@@H]1CN(C(=O)OC(C)(C)C)C[C@H]1c1ccc(OC)c(OC2CCCC2)c1 here?
**A.** The Ki was 80 nM.

**Q.** With COC(=O)N1C[C@@H](C(=O)OC(C)(C)C)[C@H](c2ccc(OC)c(OC3CCCC3)c2)C1 as the compound, how does the Ki read?
**A.** Its Ki is 4630 nM.
